Test results published in EP4741374A1, “TREPROSTINIL DERIVATIVE, AND PREPARATION METHOD THEREFOR AND USE THEREOF” (CF PharmTech HongKong Limited, priority 2023, dated 2025).

Experiments:
SD rats [1] = experiment: U46619-induced rat acute pulmonary arterial pressure rise model, low-dose airway nebulized administration (RVSP); type: in vivo; conditions: 1 hour after low-dose airway nebulized administration (about 3 µg/kg, equimolar)
From the text: In this experiment, airway nebulized administration dosages of the compounds were about 1/7 of airway nebulized administration dosages in Experimental Example 5. By using a U46619-induced rat acute pulmonary arterial pressure rise model, antihypertensive effects of the compounds of the present invention after airway nebulized administration were further verified by reducing the administration dosages.
A model construction method was the same as that described in Experimental Example 5. In this experiment, dosages of groups were as follows: the dosage of compound C16-TR group was 3 µg/kg, and the dosages of equimolar compounds Ia-1, Ia-2 and Ia-3 were 3.0 µg/kg, 3.2 µg/kg and 3.3 µg/kg respectively.
The SD rats were anesthetized and then administered by airway nebulization, and then the basic right ventricular systolic pressure (RVSP) was measured by right cardiac catheterization. The SD rats were intravenously injected with U46619 (25 µg /kg) at 1 hour after airway nebulized administration of each compound, a peak value of RVSP rise after injection with U46619 was observed and recorded, and the inhibition percentage on the RVSP rise was calculated by comparing with the basic RVSP value. The number of experimental animals in each group was 1~2.

SD rats [2] = experiment: U46619-induced rat acute pulmonary arterial pressure rise model, airway nebulized administration (RVSP); type: in vivo
From the text: U46619 was a stable analogue of thromboxane A2 (TXA2), which activated the downstream IP3 signal by binding to the thromboxane A2 receptor to promote vasoconstriction, platelet aggregation and the like. Influences of compound C16-TR and equimolar compounds Ia-1, Ia-2, Ia-3, R-11 and R-12 at different time points after airway nebulized administration on pulmonary hypertension of rats were studied by using the U46619-induced rat pulmonary arterial pressure rise mode, which were compared with that of equimolar TRE after airway nebulized administration.
Preparation of test sample: a required amount of compound TRE was taken and added into a sterile EP tube, and each tube was added with an appropriate amount of DMSO for dissolution to prepare a stock solution (100 mg/mL). Compounds C16-TR, la-1, la-2, Ia-3, R-11 and R-12 were added with appropriate amounts of DMSO and dissolved in the original bottles to prepare stock solutions (100 mg/mL), and then the stock solutions were transferred to sterile EP tubes. Each above stock solution was hermetically stored in the dark in a refrigerator at 4°C. When the stock solution was tested, an appropriate amount of stock solution was taken and added into a new sterile EP tube, and diluted with DMSO and 1×PBS to a target concentration (working solution) wherein the solvent was 3% DMSO/1×PBS.
Preparation of modeling agent: 900 µL of methyl acetate was added into an original bottle of U46619 and mixed evenly to prepare 1 mg/mL(1 µg/µL) stock solution, which was divided into 10 µL (1 µg/µL) per sterile EP tube and stored in a refrigerator at -20°C. On the day of modeling, the stock solution was taken out and balanced at room temperature and constant temperature, and each tube was added with an appropriate amount of 0.9% sodium chloride solution (sterile) to be diluted 20-fold, so as to prepare a working solution with a concentration of 50 ng/µL.
Airway nebulized administration dosages of compound TRE and the test compounds were equimolar quantities calculated based on TRE. The dosage of compound TRE group (n=3) was 13.3 µg/kg, the dosage of compound C16-TR group (n=5) was 20.9 µg/kg, the dosage of compound Ia-1 group (n=3) was 21.2 µg/kg, the dosage of compound Ia-2 group (n=6) was 22.1 µg/kg, the dosage of compound Ia-3 group (n=6) was 23.1 µg/kg, the dosage of compound R-11 group (n=3) was 21.9 µg/kg, and the dosage of compound R-12 group (n=3) was 21.7 µg/kg. There were also a model control group (n=1) and a solvent control group (n=3).
The SD rats were injected with U46619 (25 µg /kg) through the left jugular vein at different time points after airway nebulized administration, the peak value of RVSP rise after injection with U46619 was observed and recorded, and the inhibition percentage on the RVSP rise was calculated by comparing with the basic RVSP value. The rats in the model control group were administered with U46619 by intravenous injection immediately after successful catheterization and measurement of the basic RVSP. RVSP of all animals were detected by right cardiac catheterization, and respiratory conditions of the animals were observed generally. Table-2 Time points of administrating U46619 in various groups

What does the source list for `CCCCC[C@H](O)CC[C@@H]1[C@H]2Cc3cccc(OCC(=O)OCCCCCCCCOCCCCc4ccccc4)c3C[C@H]2C[C@H]1O` [Compound Ia-2]?
Inhibition percentage on RVSP rise (%) (mean) (SD rats [1]): 65.78%; antihypertensive effect and duration, overall (SD rats [2]; 1 to 48 hours after airway nebulized administration, equimolar doses): stronger antihypertensive effects than C16-TR and longer durations; antihypertensive effect (SD rats [2]; 24 hours after airway nebulized administration, equimolar to 13.3 µg/kg TRE): obvious antihypertensive effects; antihypertensive effect (SD rats [2]; 48 hours after airway nebulized administration): absence of an antihypertensive effect
